Where two headings read alike, the source gives them in different places.
Columns and labels:
Assay type in all cases: cell-based
human S1PR1 = target: T1, human S1PR1 (Homo sapiens, UniProt P21453); experiment: Intracellular Ca2+ release (FLIPR) agonist potency, S1P1
T1 construct: host or cells: CHO-K1
Summary of the method: (§1)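 CHO-K1 cells recombinantly expressing the human S1P receptor plus aequorin and Gq/i5 were grown in F-12 Ham with 10% FBS. Agonist-induced intracellular Ca2+ release was read on a FLIPR Tetra. EC50 came from nonlinear fits of raw fluorescence normalized to the phospho-fingolimod reference curve.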

human S1PR5 = target: T2, human S1PR5 (Homo sapiens, UniProt Q9H228); experiment: Intracellular Ca2+ release (FLIPR) agonist potency, S1P5
T2 construct: host or cells: CHO-K1
Summary of the method: as §1

human S1PR3 = target: T3, human S1PR3 (Homo sapiens, UniProt Q99500); experiment: Intracellular Ca2+ release (FLIPR) agonist potency, S1P3
T3 construct: host or cells: CHO-K1
Summary of the method: as §1

human S1PR4 = target: T4, human S1PR4 (Homo sapiens, UniProt O95977); experiment: Intracellular Ca2+ release (FLIPR) agonist potency, S1P4
T4 construct: host or cells: CHO-K1
T4 sequence (O95977 1-384): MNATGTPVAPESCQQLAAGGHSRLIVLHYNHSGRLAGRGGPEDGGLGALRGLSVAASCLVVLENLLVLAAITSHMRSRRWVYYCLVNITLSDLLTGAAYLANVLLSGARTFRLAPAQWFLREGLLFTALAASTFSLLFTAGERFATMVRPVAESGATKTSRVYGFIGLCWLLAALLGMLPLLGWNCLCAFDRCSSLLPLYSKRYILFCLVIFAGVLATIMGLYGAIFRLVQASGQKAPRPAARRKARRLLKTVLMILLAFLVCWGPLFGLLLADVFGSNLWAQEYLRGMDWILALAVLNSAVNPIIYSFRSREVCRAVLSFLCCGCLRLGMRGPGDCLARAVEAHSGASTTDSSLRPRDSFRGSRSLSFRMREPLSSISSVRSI
Summary of the method: as §1

[1] = recombinant CHO-K1 cells expressing human S1PR1, aequorin, Gq/i5, Calcium 5 FLIPR, read-out: S1P1 EC50
[2] = recombinant CHO-K1 cells expressing human S1PR5, aequorin, Gq/i5, Calcium 5 FLIPR, read-out: S1P5 EC50 range
[3] = recombinant CHO-K1 cells expressing human S1PR3, aequorin, Gq/i5, Calcium 5 FLIPR, read-out: S1P3 EC50
[4] = recombinant CHO-K1 cells expressing human S1PR4, aequorin, Gq/i5, Calcium 5 FLIPR, read-out: S1P4 EC50

T3 sequence (Q99500 whole entry): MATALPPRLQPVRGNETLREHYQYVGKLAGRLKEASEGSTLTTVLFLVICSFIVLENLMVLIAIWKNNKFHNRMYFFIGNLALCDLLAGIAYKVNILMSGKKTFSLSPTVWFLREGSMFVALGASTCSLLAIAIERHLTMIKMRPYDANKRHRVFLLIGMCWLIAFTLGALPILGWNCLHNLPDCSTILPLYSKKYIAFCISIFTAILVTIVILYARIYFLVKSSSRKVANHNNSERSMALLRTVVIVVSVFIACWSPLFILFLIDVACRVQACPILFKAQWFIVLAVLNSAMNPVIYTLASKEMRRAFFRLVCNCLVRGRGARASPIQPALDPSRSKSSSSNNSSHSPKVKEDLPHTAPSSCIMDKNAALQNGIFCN
T1 sequence (P21453 whole entry): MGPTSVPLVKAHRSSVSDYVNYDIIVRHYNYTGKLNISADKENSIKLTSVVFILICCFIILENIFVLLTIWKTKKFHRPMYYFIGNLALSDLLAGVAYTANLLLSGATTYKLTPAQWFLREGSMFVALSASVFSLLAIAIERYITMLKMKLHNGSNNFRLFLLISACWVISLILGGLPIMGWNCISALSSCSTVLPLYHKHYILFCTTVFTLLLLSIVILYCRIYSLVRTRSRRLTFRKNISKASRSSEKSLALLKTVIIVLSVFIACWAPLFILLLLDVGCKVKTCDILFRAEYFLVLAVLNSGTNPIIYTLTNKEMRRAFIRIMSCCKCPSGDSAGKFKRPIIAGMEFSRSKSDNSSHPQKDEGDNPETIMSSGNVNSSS
T2 sequence (Q9H228 whole entry): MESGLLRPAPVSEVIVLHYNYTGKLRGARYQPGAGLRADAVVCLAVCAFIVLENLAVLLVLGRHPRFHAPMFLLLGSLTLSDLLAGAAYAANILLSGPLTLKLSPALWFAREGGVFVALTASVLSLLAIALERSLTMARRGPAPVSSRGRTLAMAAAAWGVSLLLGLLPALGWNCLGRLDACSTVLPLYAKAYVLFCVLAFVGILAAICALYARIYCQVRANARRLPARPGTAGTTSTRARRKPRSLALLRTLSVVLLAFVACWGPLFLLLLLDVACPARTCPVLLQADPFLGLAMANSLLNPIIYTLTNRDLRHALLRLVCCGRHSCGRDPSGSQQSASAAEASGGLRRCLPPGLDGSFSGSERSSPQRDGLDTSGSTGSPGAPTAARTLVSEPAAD

Compound: O=C(O)COC1CCc2cc(OCc3cc(F)ccc3C(F)(F)F)ccc2C1 (stereo not shown) [Compound 168, 2-[6-[[5-fluoro-2-(trifluoromethyl)phenyl]methoxy]tetralin-2-yl]oxyacetic acid]
- EC50 (human S1PR1; [1]): > 1 µM
- EC50 (human S1PR5; [2]): < 0.01 µM
- EC50 (human S1PR3; [3]): > 1 µM
- EC50 (human S1PR4; [4]): < 1 µM

Compound: Cc1cccc(C)c1COc1ccc2c(c1)CCC(OCC(=O)O)C2 (stereo not shown) [Compound 175, 2-[6-[(2,6-dimethylphenyl)methoxy]tetralin-2-yl]oxyacetic acid]
- EC50 (human S1PR1; [1]): > 1 µM
- EC50 (human S1PR5; [2]): 0.01 to 0.1 µM
- EC50 (human S1PR3; [3]): > 1 µM
- EC50 (human S1PR4; [4]): > 1 µM

Compound: O=C(O)COC1CCc2cc(OCc3c(Cl)cccc3Cl)ccc2C1 (stereo not shown) [Compound 210, 2-[6-[(2,6-dichlorophenyl)methoxy]tetralin-2-yl]oxyacetic acid]
- EC50 (human S1PR1; [1]): > 1 µM
- EC50 (human S1PR5; [2]): 0.1 to 1 µM
- EC50 (human S1PR3; [3]): > 1 µM
- EC50 (human S1PR4; [4]): > 1 µM

Compound: CC(C)(C)c1ccc(COc2ccc3c(c2)CCC(OCC(=O)O)C3)cc1 (stereo not shown) [Compound 211, 2-[6-[(4-tert-butylphenyl)methoxy]tetralin-2-yl]oxyacetic acid]
- EC50 (human S1PR1; [1]): > 1 µM
- EC50 (human S1PR5; [2]): 0.01 to 0.1 µM
- EC50 (human S1PR3; [3]): > 1 µM
- EC50 (human S1PR4; [4]): > 1 µM

Compound: O=C(O)COC1CCc2cc(OCc3cccc(C(F)(F)F)c3)ccc2C1 (stereo not shown) [Compound 213, 2-[6-[[3-(trifluoromethyl)phenyl]methoxy]tetralin-2-yl]oxyacetic acid]
- EC50 (human S1PR1; [1]): > 1 µM
- EC50 (human S1PR5; [2]): 0.01 to 0.1 µM
- EC50 (human S1PR3; [3]): > 1 µM
- EC50 (human S1PR4; [4]): < 1 µM

Compound: CCc1cccc(Cl)c1COc1ccc2c(c1)CCC(NCC(=O)N(C)OC)C2 (stereo not shown) [Compound 216, 2-[[6-[(2-chloro-6-ethyl-phenyl)methoxy]tetralin-2-yl]amino]-N-methoxy-N-methyl-acetamide]
- EC50 (human S1PR1; [1]): > 1 µM
- EC50 (human S1PR5; [2]): < 0.01 µM
- EC50 (human S1PR3; [3]): > 1 µM
- EC50 (human S1PR4; [4]): > 1 µM

Compound: CCc1cccc(Cl)c1COc1ccc2c(c1)CCC(NCC(=O)NOC)C2 (stereo not shown) [Compound 218, 2-[[6-[(2-chloro-6-ethyl-phenyl)methoxy]tetralin-2-yl]amino]-N-methoxy-acetamide]
- EC50 (human S1PR1; [1]): > 1 µM
- EC50 (human S1PR5; [2]): 0.1 to 1 µM
- EC50 (human S1PR3; [3]): > 1 µM
- EC50 (human S1PR4; [4]): > 1 µM

Compound: CCc1cccc(Cl)c1COc1ccc2c(c1)CCC(NCc1cc(=O)[nH]o1)C2 (stereo not shown) [Compound 220, 5-[[[6-[(2-chloro-6-ethyl-phenyl)methoxy]tetralin-2-yl]amino]methyl]isoxazol-3-one]
- EC50 (human S1PR1): < 1 µM
- EC50 (human S1PR5; S1P5 EC50 range): < 0.01 µM
- EC50 (human S1PR3): > 1 µM
- EC50 (human S1PR4): < 1 µM

Compound: CCc1cccc(Cl)c1COc1ccc2c(c1)CCC(NCC(=O)NO)C2 (stereo not shown) [Compound 236, 2-((6-((2-chloro-6-ethylbenzyl)oxy)-1,2,3,4-tetrahydronaphthalen-2-yl)amino)acetohydroxamic acid]
- EC50 (human S1PR1; [1]): > 1 µM
- EC50 (human S1PR5; [2]): < 0.01 µM
- EC50 (human S1PR3; [3]): > 1 µM
- EC50 (human S1PR4; [4]): < 1 µM

Compound: CN(CC(=O)O)C1COc2cc(-c3ccc(OCc4ccccc4)cc3)ccc2C1 (stereo not shown) [Compound 238, 2-((7-(4-(benzyloxy)phenyl)chroman-3-yl)(methyl)amino)acetic acid]
- EC50 (human S1PR1; [1]): < 1 µM
- EC50 (human S1PR5; [2]): 0.01 to 0.1 µM
- EC50 (human S1PR3; [3]): > 1 µM
- EC50 (human S1PR4; [4]): > 1 µM

Reference: patent publication US10280159B2 (AbbVie Deutschland GmbH & Co. KG, priority 2015, dated 2019)
